Experiments:
[1] = target: Dual specificity protein kinase CLK2 (Homo sapiens) (UniProt P49760); assay: Inhibition of human recombinant CLK2 at 40 nM in presence of ATP by radiometric assay relative to control
[2] = target: T1, Tyrosine-protein kinase Mer (Homo sapiens) (UniProt Q12866); assay: Inhibition of human recombinant MER at 40 nM related to control ULK1
T1 sequence (whole entry): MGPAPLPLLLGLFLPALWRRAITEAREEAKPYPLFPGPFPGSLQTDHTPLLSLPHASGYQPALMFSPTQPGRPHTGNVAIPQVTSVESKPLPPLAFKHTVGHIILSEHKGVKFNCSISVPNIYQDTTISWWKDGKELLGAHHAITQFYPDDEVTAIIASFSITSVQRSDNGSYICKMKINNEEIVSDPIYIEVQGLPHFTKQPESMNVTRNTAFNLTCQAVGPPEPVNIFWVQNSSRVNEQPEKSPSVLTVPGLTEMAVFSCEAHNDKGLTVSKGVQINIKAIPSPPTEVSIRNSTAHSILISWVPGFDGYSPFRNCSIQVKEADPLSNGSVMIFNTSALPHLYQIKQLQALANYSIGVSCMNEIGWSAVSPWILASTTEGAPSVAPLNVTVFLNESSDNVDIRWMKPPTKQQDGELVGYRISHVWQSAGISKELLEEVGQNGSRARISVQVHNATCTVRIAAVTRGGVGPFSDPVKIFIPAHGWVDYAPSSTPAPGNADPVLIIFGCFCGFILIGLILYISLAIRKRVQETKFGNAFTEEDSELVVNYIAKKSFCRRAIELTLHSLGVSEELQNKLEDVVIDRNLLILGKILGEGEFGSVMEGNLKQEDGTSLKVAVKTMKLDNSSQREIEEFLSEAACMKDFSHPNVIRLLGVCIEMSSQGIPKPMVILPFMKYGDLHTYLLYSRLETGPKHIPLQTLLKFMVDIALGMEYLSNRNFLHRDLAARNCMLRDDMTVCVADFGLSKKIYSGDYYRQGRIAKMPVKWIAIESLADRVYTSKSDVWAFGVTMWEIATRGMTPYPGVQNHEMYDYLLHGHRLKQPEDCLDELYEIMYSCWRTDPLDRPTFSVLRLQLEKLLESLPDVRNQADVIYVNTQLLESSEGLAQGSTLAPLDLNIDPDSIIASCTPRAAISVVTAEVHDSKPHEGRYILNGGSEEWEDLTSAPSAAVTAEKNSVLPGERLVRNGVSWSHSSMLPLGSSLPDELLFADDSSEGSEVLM

[3] = target: Dual specificity protein kinase CLK4 (Homo sapiens) (UniProt Q9HAZ1); assay: Inhibition of human recombinant CLK4 at 40 nM in presence of ATP by radiometric assay relative to control
[4] = target: Serine/threonine-protein kinase B-raf (Homo sapiens) (UniProt P15056); assay: Inhibition of human recombinant BRAF at 15 nM related to control ULK1
[5] = target: T2, MAPK/MAK/MRK overlapping kinase (Homo sapiens) (UniProt Q9UQ07); assay: Inhibition of human recombinant MOK at 15 nM related to control ULK1
T2 sequence (whole entry): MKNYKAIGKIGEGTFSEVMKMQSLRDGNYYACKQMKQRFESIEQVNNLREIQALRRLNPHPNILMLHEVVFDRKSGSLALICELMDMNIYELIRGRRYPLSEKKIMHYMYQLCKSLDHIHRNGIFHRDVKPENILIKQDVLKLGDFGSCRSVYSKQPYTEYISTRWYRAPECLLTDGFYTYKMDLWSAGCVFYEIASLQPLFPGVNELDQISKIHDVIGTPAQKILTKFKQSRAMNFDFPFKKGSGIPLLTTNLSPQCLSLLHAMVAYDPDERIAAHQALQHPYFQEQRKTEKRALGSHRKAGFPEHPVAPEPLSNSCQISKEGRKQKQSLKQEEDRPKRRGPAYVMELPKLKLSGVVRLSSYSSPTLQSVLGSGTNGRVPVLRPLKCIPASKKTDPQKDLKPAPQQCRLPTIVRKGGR

[6] = target: T3, Testis-specific serine/threonine-protein kinase 1 (Homo sapiens) (UniProt Q9BXA7); assay: Inhibition of human recombinant TSSK1 at 15 nM related to control ULK1
T3 sequence (whole entry): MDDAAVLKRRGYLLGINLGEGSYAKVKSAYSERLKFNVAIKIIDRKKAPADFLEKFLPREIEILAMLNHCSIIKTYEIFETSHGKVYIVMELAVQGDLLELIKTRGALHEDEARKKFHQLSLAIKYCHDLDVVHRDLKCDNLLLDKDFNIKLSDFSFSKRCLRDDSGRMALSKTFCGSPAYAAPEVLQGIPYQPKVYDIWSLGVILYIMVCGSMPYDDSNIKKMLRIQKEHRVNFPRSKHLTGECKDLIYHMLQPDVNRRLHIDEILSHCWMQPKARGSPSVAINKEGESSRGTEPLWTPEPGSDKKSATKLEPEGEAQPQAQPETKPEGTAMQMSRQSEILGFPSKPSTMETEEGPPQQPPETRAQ

[7] = target: Calcium/calmodulin-dependent protein kinase type 1B (Homo sapiens) (UniProt Q6P2M8); assay: Inhibition of human recombinant CaMK1b at 15 nM related to control ULK1
[8] = target: MAP kinase-interacting serine/threonine-protein kinase 2 (Homo sapiens, UniProt Q9HBH9); assay: Inhibition of human recombinant MNK2 at 500 nM related to control ULK1
MAP kinase-interacting serine/threonine-protein kinase 2, sequence (Q9HBH9 whole entry, looked up): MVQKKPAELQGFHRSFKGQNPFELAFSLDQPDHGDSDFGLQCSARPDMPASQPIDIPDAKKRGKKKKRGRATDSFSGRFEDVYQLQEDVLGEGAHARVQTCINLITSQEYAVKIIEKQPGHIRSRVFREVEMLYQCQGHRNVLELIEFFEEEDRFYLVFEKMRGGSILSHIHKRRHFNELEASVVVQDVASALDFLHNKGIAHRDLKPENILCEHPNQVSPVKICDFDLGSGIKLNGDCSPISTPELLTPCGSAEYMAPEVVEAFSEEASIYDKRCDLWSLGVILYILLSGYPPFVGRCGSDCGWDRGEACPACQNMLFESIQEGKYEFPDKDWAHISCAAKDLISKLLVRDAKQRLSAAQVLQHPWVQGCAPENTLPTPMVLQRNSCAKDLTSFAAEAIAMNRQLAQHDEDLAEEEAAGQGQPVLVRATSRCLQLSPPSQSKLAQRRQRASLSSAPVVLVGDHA

Calcium/calmodulin-dependent protein kinase type 1B (Homo sapiens), sequence (Q6P2M8 whole entry): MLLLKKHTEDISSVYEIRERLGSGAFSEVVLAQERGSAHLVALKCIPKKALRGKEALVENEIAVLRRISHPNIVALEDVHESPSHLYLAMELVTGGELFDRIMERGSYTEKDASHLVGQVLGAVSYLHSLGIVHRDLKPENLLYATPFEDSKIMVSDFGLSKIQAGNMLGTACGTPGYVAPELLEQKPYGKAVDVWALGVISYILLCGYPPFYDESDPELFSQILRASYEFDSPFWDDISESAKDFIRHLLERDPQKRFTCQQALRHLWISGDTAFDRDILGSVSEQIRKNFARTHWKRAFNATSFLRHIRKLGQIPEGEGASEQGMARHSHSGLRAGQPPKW
Dual specificity protein kinase CLK2 (Homo sapiens), sequence (P49760 whole entry, looked up): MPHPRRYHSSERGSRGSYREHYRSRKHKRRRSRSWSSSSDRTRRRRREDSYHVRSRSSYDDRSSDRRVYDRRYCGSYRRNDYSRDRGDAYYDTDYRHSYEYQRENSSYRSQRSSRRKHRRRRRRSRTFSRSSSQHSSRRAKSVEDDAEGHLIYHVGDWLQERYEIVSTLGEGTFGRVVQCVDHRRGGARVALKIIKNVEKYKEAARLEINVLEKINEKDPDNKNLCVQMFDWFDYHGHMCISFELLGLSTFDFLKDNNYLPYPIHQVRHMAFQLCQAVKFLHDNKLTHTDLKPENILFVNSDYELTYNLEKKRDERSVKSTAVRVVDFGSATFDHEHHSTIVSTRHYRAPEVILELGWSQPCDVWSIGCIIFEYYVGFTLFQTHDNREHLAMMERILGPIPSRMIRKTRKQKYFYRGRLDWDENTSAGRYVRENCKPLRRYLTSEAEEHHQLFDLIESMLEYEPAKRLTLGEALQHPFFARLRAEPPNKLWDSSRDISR
Serine/threonine-protein kinase B-raf (Homo sapiens), sequence (P15056 whole entry): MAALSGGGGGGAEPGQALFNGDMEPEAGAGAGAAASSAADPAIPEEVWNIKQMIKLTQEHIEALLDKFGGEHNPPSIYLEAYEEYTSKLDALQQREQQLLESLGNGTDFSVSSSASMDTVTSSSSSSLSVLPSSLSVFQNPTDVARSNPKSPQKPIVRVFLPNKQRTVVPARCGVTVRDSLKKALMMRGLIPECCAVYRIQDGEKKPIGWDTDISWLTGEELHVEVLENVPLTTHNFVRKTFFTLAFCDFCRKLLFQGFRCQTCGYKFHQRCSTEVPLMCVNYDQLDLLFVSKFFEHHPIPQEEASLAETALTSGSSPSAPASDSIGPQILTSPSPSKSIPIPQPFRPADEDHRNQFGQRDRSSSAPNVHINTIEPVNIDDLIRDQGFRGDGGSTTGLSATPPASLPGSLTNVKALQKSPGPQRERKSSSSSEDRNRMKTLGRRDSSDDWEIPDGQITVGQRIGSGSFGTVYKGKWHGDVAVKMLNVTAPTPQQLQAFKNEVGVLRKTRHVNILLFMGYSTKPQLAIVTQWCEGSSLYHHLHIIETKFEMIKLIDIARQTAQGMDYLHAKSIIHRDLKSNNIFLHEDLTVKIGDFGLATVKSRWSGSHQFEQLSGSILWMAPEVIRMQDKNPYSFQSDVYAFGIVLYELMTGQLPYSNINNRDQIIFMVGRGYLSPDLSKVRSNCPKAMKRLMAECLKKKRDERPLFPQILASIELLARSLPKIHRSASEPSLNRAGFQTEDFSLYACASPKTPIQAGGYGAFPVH
Dual specificity protein kinase CLK4 (Homo sapiens), sequence (Q9HAZ1 whole entry, looked up): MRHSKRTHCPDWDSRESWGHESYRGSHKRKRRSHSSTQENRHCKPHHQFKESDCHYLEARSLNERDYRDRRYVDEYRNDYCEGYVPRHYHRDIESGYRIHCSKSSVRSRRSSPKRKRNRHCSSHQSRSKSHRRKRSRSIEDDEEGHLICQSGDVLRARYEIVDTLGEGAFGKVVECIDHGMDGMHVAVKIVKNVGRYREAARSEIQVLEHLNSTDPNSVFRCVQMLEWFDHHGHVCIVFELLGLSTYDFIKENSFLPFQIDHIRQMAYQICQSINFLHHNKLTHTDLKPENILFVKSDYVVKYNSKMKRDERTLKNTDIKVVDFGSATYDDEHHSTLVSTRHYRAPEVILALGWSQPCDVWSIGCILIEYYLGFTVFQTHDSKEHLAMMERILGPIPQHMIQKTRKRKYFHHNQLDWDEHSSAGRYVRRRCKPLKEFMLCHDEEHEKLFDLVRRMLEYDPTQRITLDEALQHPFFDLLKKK

O=C(N[C@@H](C1CC1)C(F)(F)F)c1cc(-c2cnn3cc(-c4ccc(F)cc4)cnc23)cs1
inhibition [1]: 19% | fold change (FC) [2]: 0.01 | inhibition [3]: 52%

CC(C)[C@H](NC(=O)c1cc(-c2cnn3cc(-c4ccc(OCCN5CCCCC5)cc4)cnc23)cs1)C(F)(F)F
fold change (FC) [4]: 0.13 | fold change (FC) [5]: 0.06 | fold change (FC) [6]: 0.26 | fold change (FC) [7]: 0

CNC(=O)c1ccccc1Oc1nc(Nc2cc(OC)c(OC)c(OC)c2)ncc1Br
fold change (FC) [8]: 0.03
